“Also recorded” adds a separate entry of the source.

Holding throughout (format): cell-based
Test [1] deals with T1, msGFP-HaloTag® fusion localized to the mitochondrial outer membrane (Rhodococcus rhodochrous, UniProt P0A3G2, A155T/A167V/A172T/A224E/C128F/C176G/D78G/E160K/E257K/H272N/K175M/K195N/L47V/L88M/N227D/S58T/T264A/Y273L/Y87F).
T1 construct: expressed in transfected cells; host or cells: HEK293T, calcium phosphate transfection
As to the method:
HEK293T labeling and fluorescence microscopy. […] For pulse-chase experiments, HEK293T cells were incubated with biotin-HaloTag® ligand (6; #G8281, Promega) at either 100 nM or 10 μM for 1 hour at 37° C. and chased with 100 nM of JANELIA FLUOR® (JF)549-HaloTag® ligand (2HTL). […] For imaging, the coverslips containing HEK293T cells were fixed with 4% paraformaldehyde in PBS at 37° C. for 10 min, washed with PBS (3×), and mounted on glass slides with ProLong Glass Antifade Mountant with NucBlue™ Stain (ThermoFisher; P36981). These cells were imaged using a Zeiss LSM 880 with Airyscan and a plan-apochromatic 63×/1.40 oil objective in Fast Airyscan mode. The same image acquisition settings were used for each trial and condition. Images were then processed with automatic Airyscan deconvolution settings.

The target of test [2] is T2, msGFP-HaloTag® fusion protein (mitochondria) from HEK293T cells (Rhodococcus rhodochrous, UniProt P0A3G2, A155T/A167V/A172T/A224E/C128F/C176G/D78G/E160K/E257K/H272N/K175M/K195N/L47V/L88M/N227D/S58T/T264A/Y273L/Y87F).
T2 construct: and (4) HaloTag®; expressed in transfected cells; host or cells: HEK293T, calcium phosphate transfection
T2 sequence (P0A3G2 other isoform, or with tags, fused parts or gaps with the stated changes): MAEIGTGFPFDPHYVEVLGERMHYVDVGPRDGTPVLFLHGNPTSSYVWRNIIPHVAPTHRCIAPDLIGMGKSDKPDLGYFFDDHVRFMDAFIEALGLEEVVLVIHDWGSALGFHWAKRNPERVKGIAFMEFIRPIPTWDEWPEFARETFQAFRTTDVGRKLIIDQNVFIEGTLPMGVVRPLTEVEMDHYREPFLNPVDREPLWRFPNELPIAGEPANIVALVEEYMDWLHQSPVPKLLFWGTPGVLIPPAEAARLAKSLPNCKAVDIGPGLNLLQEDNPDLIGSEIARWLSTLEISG
The test can be described thus: Affinity capture (streptavidin microbeads) and in-gel fluorescence. The conditions noted are these: streptavidin beads. The procedure: Affinity capture and in-gel fluorescence experiments. Affinity capture pulldown isolation experiments of biotin-labeled HaloTag® fusion proteins were performed on ice-cold isolation buffer (IB) consisting of KCl (0.18 M), ethylene glycol-bis(β-aminoethyl ether)-N,N,N′,N′-tetraacetic acid (EGTA; 1 mM), 3-(N-morpholino)propanesulfonic acid (MOPS; 5 mM); the pH was adjusted to pH=7.35 using KOH(aq).^51 HEK293T cells were scraped with 500 μL IB and homogenized using 12 strokes with a 27G syringe. The resulting homogenate was spun at 4° C. at 1000 g for 3 min to pellet large cellular debris. 50 μL of streptavidin-coated microbeads (Miltenyi, 130-048-101) were added to the supernatant and incubated for 30 min at 4° C. with slow rotation. LS columns (Miltenyi, 130-042-401) were prepared by first washing with 3 mL IB consisting of 2.5% bovine serum albumin (BSA; Jackson ImmunoResearch, 001-000-162) and then with plain IB (3×). Prior to supernatant-microbead mixture being loaded onto LS columns, 5% volume was taken for downstream total fraction calculations (i.e., the “total/20” sample). Columns and samples were kept at 4° C. (cold room) while samples were loaded onto columns and washed with IB (3×); this fraction was collected as designated as “wash”. After the washing step, the column was removed from the QuadroMACs magnet holder (Miltenyi, 130-092-857) and eluted with gentle plunge action into an Eppendorf tube; this was labeled as “eluate”. From here, there were three fractions for each condition: total/20, wash (unbound), and eluate (bound). Since mitochondria were being isolated, these samples were spun at 4° C. and 20,000 g to pellet mitochondria. These samples were then solubilized using the lysis buffer containing 1×PBS, 2% SDS, 1% Triton x-100, 10 mM EDTA, and protease inhibitors (2 mM PMSF, aprotinin, leupeptin, and pepstatin A). Samples were then incubated at 72° C. for 3-4 min after the addition of sample buffer (SB) (DTT, glycerol, and bromophenol blue). For protein detection, 10-20 μL of the sample was subjected to sodium dodecyl sulfate-polyacrylamide gel electrophoresis (SDS-PAGE), using 13% gels. The affinity capture pulldown efficiency was monitored using in-gel fluorescence. The msGFP signal from HaloTag®-TEV-4×GS-msGFP-mito after cell lysis and SDS-PAGE was analyzed, in-gel, using a BioRad Chemidoc MP imager (BioRad) through GFP fluorescence excitation and emission filters. Data were quantified by densitometry using Fiji.^52 Capture efficiency was calculated using equation 3:
[formula] • where Ieluate is the in-gel fluorescence intensity of the bead-bound fraction and Itotal/20 is the in-gel fluorescence intensity of the 5% of crude sample reserved for concentration control (i.e., the “total/20” sample).
Evaluation of biotin-HaloTag® ligand. A live cell permeable biotin reagent was saught for affinity pulldown of HaloTag® fusion proteins, given the broad utility of biotin conjugates in biochemistry and cell biology. To evaluate the performance of biotin-containing HaloTag® ligand, an assay was developed (FIG. 3A) where the HaloTag® is expressed as a fusion with monomeric superfolder green fluorescent protein (msGFP); the construct also included an OMP25 sequence to localize the fusion protein to the outer mitochondrial membrane, allowing straightforward imaging and affinity capture experiments.^28-29 HEK293T cells expressing this fusion protein were incubated with biotin-containing HaloTag® ligands followed by washing and cell lysis. The crude supernatant was incubated with streptavidin-coated magnetic microbeads, applied to a magnetic column, and washed. The magnet was removed, and the bead-bound mitochondria were eluted, lysed, and the resulting solution was analyzed by sodium dodecyl sulfate-polyacrylamide gel electrophoresis (SDS-PAGE) and in-gel fluorescence. To minimize dilution of the sample only the initial bead-bound fraction was collected, leaving some material on the column. […]

For test [3], the target named is T3, BRD4 (Homo sapiens, UniProt O60885).
T3 construct: expressed in transfected cells; host or cells: N2a cells, transient transfection
As to the kind of experiment: BRD4 recruitment to HP1-HaloTag® in live N2a cells (no wash lattice lightsheet microscopy). The conditions noted are these: 100 nM. As to the method: (§1) Live cell protein imaging and manipulation using JQ1-rhodamine-HaloTag® ligand. The ability of JQ1 ligands to recruit BET family protein BRD4 to HaloTag® fusion proteins at distinct genomic regions in N2a cells was then tested (FIG. 13A). N2a cells are neural progenitor cells that are frequently utilized to study neuronal differentiation and axonal growth. […] N2a cells were transiently transfected with plasmids encoding the HaloTag® protein fused to the following nuclear proteins: (1) constitutive heterochromatin marker heterochromatin protein 1 (HP1); (2) Cajal body component coilin; and (3) centromere localized histone H3 variant centromere protein A (CENP-A). These three proteins have a very distinct distribution in the nucleus than BRD4 which generally has an euchromatic distribution. Localization of BRD4 to specific gene loci can induce gene expression. […]
(§2) Initially, a side-by-side comparison of JF646 based 17 and JF635 based 18 was performed for recruiting BRD4 to coilin-HaloTag® under a “no wash” lattice lightsheet fluorescence microscopy setup. […] Advantageously, 18 also has lower absorptivity and negligible fluorescence quantum yield before HaloTag® conjugation. “No wash” imaging was performed and the fluorescence from JF635 and sfGFP were monitored. […] The […] HP1-HaloTag® labeled with either JF635-HaloTag® ligand (5HTL) or the JQ1 analog 18 were quantified (FIG. 13J).

Test [4] has as its target T3, BRD4. The test can be described thus: BRD4 recruitment to coilin-HaloTag® in live N2a cells (no wash lattice lightsheet microscopy). The conditions noted are these: 100 nM. The procedure:
as §1, §2

T1 sequence (P0A3G2 other isoform, or with tags, fused parts or gaps with the stated changes): as above

In the case of `O=C(CCCC[C@@H]1SC[C@@H]2NC(=O)N[C@@H]21)NCCOCCOCCCCCCCl` [compound 6, biotin-HaloTag® ligand], the “labeling of HaloTag®-msGFP fusion by pulse-chase (JF549/msGFP ratio after 2HTL chase)” value in test [1] (HEK293T, 10 μM (μM concentrations), 1 h pulse) is given as “substantially reduced JF549/msGFP ratio; also recorded: labels the HaloTag®-msGFP fusion in living cells; also recorded: substantially labeled the HaloTag® protein fusion”. For the same compound, in test [1] (HEK293T, nanomolar concentration (100 nM)), the “labeling of HaloTag®-msGFP fusion by pulse-chase” value is “poor labeling”. Further, the “concentration required to achieve cellular labeling” value in test [1] (live cells) was found to be 10 µM. Also, the “affinity capture (protein bound to streptavidin)” value in test [2] was “prevents purification of HaloTag®-expressing mitochondria; also recorded: no appreciable affinity capture”.

Take `Cc1sc2c(c1C)C(c1ccc(Cl)cc1)=N[C@H](CC(=O)NCCCCOCCOCCNC(=O)C1(F)C[N+](=C3C=CC4=C(c5cc(C(=O)NCCOCCOCCCCCCCl)ccc5C(=O)[O-])c5ccc(N6CC(F)C6)cc5[Si](C)(C)C4=C3)C1)c1nnc(C)n1-2` (stereo partly drawn) [compound 19, (−)-JQ1-JF635-HaloTag® ligand]: at BRD4 [3], the “BRD4 localization to HP1-HaloTag®” value is given as “did not result in BRD4 localization”. Further, the “BRD4 recruitment to coilin-HaloTag®” value on BRD4 [4] is “did not result in BRD4 localization”.

Source of the values: US20240239818A1, “COMPOUNDS AND COMPOSITIONS COMPRISING FLUOROPHORES FOR USE IN VISUALIZATION AND PURIFICATION OR MANIPULATION” (priority 2022, published 2024).
